Structures are written as SMILES.

This is an account of results in the supplement of paper PMC10949913.

Test in all cases: area under concentration-response curve (viability) (AUC (a.u.)); higher = less active
Holding throughout (conditions): 48 h

One experiment relates to CU-ACC2. The method, boiled down:
(§1)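 Library compounds were tested at 11 concentrations against three adrenocortical carcinoma cell lines in 1,536-well plates. CellTiter-Glo luminescence was read after 48 h and normalised per plate to vehicle and empty-well controls. Only inhibitory or non-responding curve classes from fitted concentration-response curves contributed AC50 and area under the curve.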

The next experiment deals with NCI-H295R. Summed up: as §1
In the next experiment the test system is CU-ACC1. Summed up:
as §1

As for `C/C(=N\NC(=O)c1cccc([S+](=O)([O-])N2CCOCC2)c1)c1cc(Cl)ccc1O`, the “area under concentration-response curve” value was 640 in the experiment with CU-ACC2 and 597 in the experiment on NCI-H295R.
As to `C[C@H]1[C@H](O)[C@@H](C)/C=C/C=C/CC/C=C/C=C/C=C/C=C/[C@H](O[C@@H]2O[C@H](C)[C@@H](O)[C@H](N)[C@@H]2O)C[C@@H]2O[C@](O)(C[C@@H](O)[C@H](O)CC[C@@H](O)C[C@@H](O)C[C@@H](O)CC(=O)O[C@H]1C)C[C@H](O)[C@H]2C(=O)O`, the “area under concentration-response curve” value with CU-ACC1 stood at 375; in the experiment on CU-ACC2, 426.
In the same order, the values of `c1ccc(-c2nn3c(c2-c2ccnc4cc(OCCN5CCOCC5)ccc24)CCC3)nc1` are 479 and 496.
With `COC1=CC2=C(OC\C(=C2\C3=CC=C(F)C=C3)CN4CCCC4)C=C1`, the “area under concentration-response curve” value in the experiment on CU-ACC1 was 500; in the experiment on CU-ACC2 it was 560.
In the same order, the values of `F\C1=C\NC(=O)NC1=O` are 483 and 505.
With `Cc1[nH]c(=O)c(C#N)cc1-c1ccc2nccn2c1.Cl`, the “area under concentration-response curve” value in the experiment on CU-ACC1 was 587; in the experiment with CU-ACC2, 624.
In the same order, the values of `O=C1Nc2ccccc2/C1=C1\Nc2ccccc2C1=O` are 557 and 589.
`CCc1nc(-c2cccc(C)c2)c(-c2ccnc(NC(=O)c3ccccc3)c2)s1`: the figures for the “area under concentration-response curve” value in the experiment on CU-ACC1 and in the experiment on CU-ACC2 were 490 and 574, respectively.
Taken in the same sequence, the figures for `O=C(Nc1ccc(OC(F)(F)F)cc1)c1sccc1NCc1ccnc2ccccc12` were 525 and 639.
`NC/1=N/C(=O)N(/C=C1)[C@@H]2O[C@H](CO)[C@@H](O)C2(F)F`: the figures for the “area under concentration-response curve” value with CU-ACC1 and in the experiment with CU-ACC2 were 497 and 541, respectively.
In the same order, the values of `CN(C)C(=N)NC(=N)N` are 550 and 572.
For `CN(CCOc1ccc(-c2ccc3c(c2)OCO3)cc1C(C)(C)C)CC(=O)O`, the “area under concentration-response curve” value came out at 498 in the experiment on CU-ACC1 and 486 with CU-ACC2.
`CCCCOc1nc(N)c2c(n1)N(Cc1cccc(CN3CCCC3)c1)CC(=O)N2`: the “area under concentration-response curve” value in the experiment with CU-ACC1 was found to be 538; in the experiment on CU-ACC2, 506.
In the same order, the values of `CCc1ccc(N(CC(C)C)[S+](=O)([O-])c2ccc(OCC3CCOCC3)c(CO)c2)cc1` are 466 and 586.
As to `CCOC(=O)N[C@@H]1CC[C@@H]2[C@@H](C1)C[C@H]1C(=O)O[C@H](C)[C@H]1[C@H]2/C=C/c1ccc(-c2cccc(F)c2)cn1`, the results for the “area under concentration-response curve” value in the experiment with CU-ACC1 and with CU-ACC2 were 537 and 511, respectively.
For the compound `Clc1ccc(COC(Cn2ccnc2)c2ccc(Cl)cc2Cl)c(Cl)c1` (configuration not stated), the “area under concentration-response curve” value was determined as 265 in the experiment with CU-ACC1 and 308 in the experiment with CU-ACC2.
For the compound `CC(C)(O)CCc1ccc(OCc2cc(-c3cccc(OC(F)F)c3)c3ncccc3c2)cc1`, the “area under concentration-response curve” value stood at 543 in the experiment with CU-ACC1 and 586 in the experiment on CU-ACC2.
Taken in the same sequence, the figures for `O=C1CC(c2c[nH]c3ccc(F)cc23)C(=O)N1` (configuration not stated) were 465 and 424.
Taken in the same sequence, the figures for `Cn1cc(C[C@@H](N)C(=O)O)c2ccccc21` were 619 and 658.
Taken in the same sequence, the figures for `CN(Cc1cc(Br)cc(Br)c1N)C1CCCCC1` were 383 and 526.
`C\C1=C\C(=O)OC2=C1C=CC(=C2)O`: the results for the “area under concentration-response curve” value in the experiment with CU-ACC1 and in the experiment with CU-ACC2 were 473 and 552, respectively.
In the same order, the values of `COc1ccccc1C(=O)Nc1cc2c(cc1N1CCCC1)n(C)c(=O)n2C` are 537 and 602.
In the same order, the values of `C[C@]12CC[C@H]3[C@@H](CC[C@@]45O[C@@H]4\C(=C(/C[C@]35C)C#N)O)[C@@H]1CC[C@@H]2O` are 571 and 590.
Taken in the same sequence, the figures for `COC1=C(CN(C)C)C=C(OC)C(=C1)C/2=C/N(C)C(=O)C3=C2C=CN=C3` were 516 and 597.
Turning to `N=C1N[C@H]2[C@H](CS[C@H]2CCCCC(=O)O)N1`, the “area under concentration-response curve” value with CU-ACC1 is 217; in the experiment with CU-ACC2, 256.
Regarding `CCCCc1ccc(N[S+](=O)([O-])c2ccc(C)c(C(=O)N3CCN(c4cccc(C)c4C)CC3)c2)cc1`, the entries for the “area under concentration-response curve” value in the experiment with CU-ACC1 and in the experiment on CU-ACC2 were 527 and 634, respectively.
Taken in the same sequence, the figures for `c1ccc2c(Cc3c[nH]c4ccccc34)c[nH]c2c1` were 505 and 574.
Taken in the same sequence, the figures for `Nc1c2c(nc3ccccc13)CCCC2` were 583 and 653.
Taken in the same sequence, the figures for `C[C@H](NC(=O)C1=C2N=CC=C[N]2N=C1N)\C3=C\C4=CC=CC(=C4C(=O)N3C5=CC=CC=C5)C#CC6=C[N](C)N=C6` were 511 and 608.
With `CC(C)(C)c1cc(C=C(C#N)C#N)cc(Br)c1O`, the “area under concentration-response curve” value in the experiment with CU-ACC1 came out at 552; in the experiment with CU-ACC2, 583.
Taken in the same sequence, the figures for `C[C@H]1CN(C[C@@H](C)O1)CC(=O)NC2=CC=C3SC4=C(CC3=C2)C=CC=C4\C5=C\C(=O)\C=C(/O5)N6CCOCC6` were 439 and 428.
Taken in the same sequence, the figures for `O=C(Nc1cccnc1)c1cc(-c2ccnc(F)c2)ccc1OCc1ccccc1` were 514 and 615.
`CC(C)c1ccc2c(c1)c(SC(C)(C)C)c(CC(C)(C)C(=O)[O-])n2Cc1ccc(Cl)cc1`: the entries for the “area under concentration-response curve” value in the experiment on CU-ACC1 and with CU-ACC2 were 457 and 572, respectively.
Taken in the same sequence, the figures for `CNNCc1ccc(C(=O)NC(C)C)cc1` were 517 and 526.
In the same order, the values of `CCC(=O)OCC(=O)C1(OC(=O)CC)C(C)CC2C3CC\C4=C\C(=O)\C=C/C4(C)C3(F)C(O)CC12C` (configuration not stated) are 528 and 613.
Take `CN1CCC(=C2c3ccccc3CC(=O)c3sccc32)CC1`: the “area under concentration-response curve” value in the experiment on CU-ACC1 came out at 557; with CU-ACC2 it was 537.
Taken in the same sequence, the figures for `CC(C)NCCCn1c(Sc2cc(Cl)cc(Cl)c2)nc2c(N)ncnc21` were 511 and 572.
In the same order, the values of `CN(C)CCN(C)CCc1ccc(Cl)c(Cl)c1` are 574 and 581.
Taken in the same sequence, the figures for `CC(C)(C)NC(=O)[C@H]1CC[C@H]2[C@@H]3CC[C@H]4NC(=O)\C=C/[C@]4(C)[C@H]3CC[C@]12C` were 618 and 622.
In the case of `COc1ccc2[nH]c([S+]([O-])Cc3ncc(C)c(OC)c3C)nc2n1` (configuration not stated), the entries for the “area under concentration-response curve” value in the experiment on CU-ACC1 and with CU-ACC2 were 542 and 637, respectively.
Consider `Nc1ncnc2c1nc(Cl)n2[C@@H]1O[C@H](CO)[C@@H](O)[C@H]1O`, for which the “area under concentration-response curve” value with CU-ACC1 was found to be 471; in the experiment with CU-ACC2, 542.
For the compound `CSC[C@H]1CN(Cc2c[nH]c3c(N)ncnc23)C[C@@H]1O`, the “area under concentration-response curve” value in the experiment on CU-ACC1 stood at 364; in the experiment on CU-ACC2, 417.
In the same order, the values of `OC[C@H]1O[C@@H](O[C@@H]2O\C=C(/[C@H]3C\C=C(CO)/[C@@H]23)C(O)=O)[C@H](O)[C@@H](O)[C@@H]1O` are 538 and 594.
Taken in the same sequence, the figures for `COCCCOc1cc(C[C@@H](C[C@H](N)[C@@H](O)C[C@H](C(=O)NCC(C)(C)C(N)=O)C(C)C)C(C)C)ccc1OC` were 564 and 648.
Taken in the same sequence, the figures for `CC1(CN2CCC(n3c(=O)[nH]c4ccccc43)CC2)OCc2ccccc2-n2cccc21` (configuration not stated) were 494 and 556.
As for `CCCCCCCCCCCCCC(=O)N[C@H](CO)[C@H](O)c1ccc([N+](=O)[O-])cc1`, the “area under concentration-response curve” value in the experiment with CU-ACC1 amounted to 502; in the experiment with CU-ACC2, 598.
For `CCCCOc1ccc(C(=O)Nc2ccc(F)cc2F)cc1`, the “area under concentration-response curve” value came to 514 in the experiment on CU-ACC1 and 586 in the experiment with CU-ACC2.
Taken in the same sequence, the figures for `Cc1c(C(=O)Nc2cccc(C(F)(F)F)c2)cc(-c2ccccc2)n1CCCN1CCOCC1` were 573 and 610.
In the same order, the values of `CCCCCCCCCCCCCCCCOCCCO[P](O)(=O)COC(CO)CN1/C=C\C(=N/C1=O)N` (configuration not stated) are 551 and 609.
In the same order, the values of `Nc1nnc(-c2cccc(Cl)c2Cl)c(N)n1` are 563 and 630.
For the compound `CN1C(=N)N[C@](C)(c2cc(NC(=O)c3ccc(F)cn3)ccc2F)C[S+]1(=O)[O-]`, the “area under concentration-response curve” value in the experiment with CU-ACC1 came out at 563; in the experiment on CU-ACC2 it was 611.
